Source: ChEMBL document CHEMBL5543140 (J Med Chem, 2024)
pKi: −log10 of the molar value. Calls of active or inactive are those of the source. No cut-off for these calls is given here.

Experiments:
[1] = biological target: 5-hydroxytryptamine receptor 2B (Homo sapiens, UniProt P41595); assay: Binding affinity to human [125I]LSD-labeled 5-HT2B receptor expressed in CHO cell membrane incubated for 60 mins; type: cell membranes
[2] = biological target: T1, 5-hydroxytryptamine receptor 2C (Homo sapiens, UniProt P28335); assay: Binding affinity to human [125I]LSD-labeled 5-HT2C receptor expressed in HEK293 cell membrane incubated for 60 mins; type: cell membranes
T1 sequence (P28335 whole entry): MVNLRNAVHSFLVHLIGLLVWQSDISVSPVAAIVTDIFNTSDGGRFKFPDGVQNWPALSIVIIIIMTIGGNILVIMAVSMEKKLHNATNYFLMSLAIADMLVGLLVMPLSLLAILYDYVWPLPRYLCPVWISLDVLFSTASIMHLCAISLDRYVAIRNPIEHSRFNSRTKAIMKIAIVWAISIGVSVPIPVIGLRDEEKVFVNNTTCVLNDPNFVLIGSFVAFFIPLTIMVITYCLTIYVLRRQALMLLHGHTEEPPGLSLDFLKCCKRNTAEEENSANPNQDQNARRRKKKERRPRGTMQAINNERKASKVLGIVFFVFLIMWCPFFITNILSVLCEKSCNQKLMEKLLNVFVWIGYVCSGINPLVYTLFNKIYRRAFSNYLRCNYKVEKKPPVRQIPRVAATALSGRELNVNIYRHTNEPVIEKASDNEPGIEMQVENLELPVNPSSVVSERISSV

[3] = biological target: 5-hydroxytryptamine receptor 6 (Homo sapiens, UniProt P50406); assay: Displacement of [3H]LSD from 5-HT6 receptor (unknown origin) assessed as inhibition binding at 10 uM relative to control
[4] = biological target: 5-hydroxytryptamine receptor 1B (Homo sapiens, UniProt P28222); assay: Displacement of [3H]5-CT from 5-HT1B receptor (unknown origin) assessed as inhibition binding
[5] = biological target: Muscarinic acetylcholine receptor M1 (Homo sapiens) (UniProt P11229); assay: Displacement of [3H]-Pirenzepine from human muscarinic M1 expressed in CHO-K1 cells membrane at 10 uM incubated for 60 mins by microbeta liquid scintillation counting analysis; type: cell membranes; details: Cell membrane
[6] = biological target: Alpha-2A adrenergic receptor (Homo sapiens) (UniProt P08913); assay: Agonist activity at human recombinant adrenergic alpha-2A receptor expressed in CHO-K1 cells co-transfected with 22F-Glosensor assessed as maximal inhibition of cAMP production measured after 30 mins incubation by Microbeta2Micro-plate counter analysis relative to clonidine; type: functional, cell-based; details: filed as agonist
[7] = Cmax in mouse C57BL/6J brain at 3 mg/kg, sc measured after 2 hrs; type: ADME, organism-based
[8] = test system: Mus musculus; assay: Locomotor activity in C57BL/6J mouse assessed as distance traveled at 1 mg/kg, po measured for 15 to 25 mins (reference value: 1710 +/- 120 cm) by Ethovision tracking system; type: functional; details: time 15-25 min
[9] = test system: Mus musculus; assay: Psychedelic effect in C57BL/6J mouse assessed as number of 5-HT2A receptor dependent head-twitch responses by visual observation at 3 mg/kg, sc measured after 24 hrs; type: functional
[10] = test system: Mus musculus; assay: Psychedelic effect in C57BL/6J mouse assessed as number of 5-HT2A receptor dependent head-twitch responses by visual observation at 3 mg/kg, sc in presence of ketanserin 1 mg/kg, sc measured after 24 hrs; type: functional
[11] = test system: Mus musculus; assay: Psychedelic effect in C57BL/6J mouse assessed as head-twitch responses reversibility by visual observation at 3 mg/kg, sc once a day for 3 days following treatment free for 48 hrs followed by redosed at 3 mg/kg, sc; type: functional, organism-based; details: time 3.0 day
[12] = Ex vivo binding in C57BL/6J mouse brain frontal cortex assessed as specific binding [3H]Cimbi-36 at 1 mg/kg, sc measured after 5 mins by liquid scintillation counting analysis (reference value: 1092 +/- 53); type: functional
[13] = Ex vivo binding in C57BL/6J mouse brain frontal cortex assessed as specific binding [3H]Cimbi-36 at 1 mg/kg, sc measured after 10 mins by liquid scintillation counting analysis (reference value: 1092 +/- 53); type: functional
[14] = Ex vivo binding in C57BL/6J mouse brain frontal cortex assessed as specific binding [3H]Cimbi-36 at 1 mg/kg, sc measured after 160 mins by liquid scintillation counting analysis (reference value: 1092 +/- 53); type: functional; details: 2.667 h
[15] = Ex vivo binding in C57BL/6J mouse brain frontal cortex assessed as specific binding [3H]Cimbi-36 at 1 mg/kg, sc measured after 360 mins by liquid scintillation counting analysis (reference value: 1092 +/- 53); type: functional; details: 6 h
[16] = Ex vivo binding in C57BL/6J mouse brain frontal cortex assessed as inhibition of [3H]Cimbi-36 binding at 1 mg/kg, sc measured after 10 mins by liquid scintillation counting analysis (reference value: 0%); type: functional
[17] = test system: Hippocampus; assay: Induction of neuroplasticity in C57BL/6J mouse assessed as increase in mTOR mRNA expression in brain hippocampus at 3 mg/kg, sc single dose by RT-PCR analysis; type: functional, organism-based
[18] = test system: Hippocampus; assay: Induction of neuroplasticity in C57BL/6J mouse assessed as increase in c-Fos mRNA expression in brain hippocampus at 3 mg/kg, sc single dose by RT-PCR analysis; type: functional, organism-based
[19] = test system: Mus musculus; assay: Induction of neuroplasticity in C57BL/6J mouse assessed as increase in EGR2 mRNA expression in brain frontal cortex at 0.3 mg/kg, sc single dose by RT-PCR analysis; type: functional, organism-based
[20] = Metabolic stability in human liver microsomes assessed as half life at 1 uM incubated for 120 mins in presence of NADPH; type: ADME, Microsome
[21] = Metabolic stability in dog liver microsomes assessed as half life at 1 uM incubated for 120 mins in presence of NADPH; type: ADME, Canis lupus familiaris, Microsome
[22] = Metabolic stability in dog liver S9 fractions assessed as half life; type: ADME, subcellular, Canis lupus familiaris; details: liver S9 fraction
[23] = Tmax in Wistar rat plasma at 1 mg/kg, iv measured upto 48 hrs; type: ADME, organism-based
[24] = AUCinf in Wistar rat plasma at 5 mg/kg, po measured upto 48 hrs; type: ADME, organism-based
[25] = Tmax in Wistar rat brain at 1 mg/kg, iv measured upto 48 hrs; type: ADME, organism-based
[26] = Brain to plasma ratio in Wistar rat at 1 mg/kg, iv measured upto 48 hrs; type: ADME, organism-based; details: read-out: BPR
[27] = AUCinf in Wistar rat brain at 5 mg/kg, po measured upto 48 hrs; type: ADME, organism-based
[28] = Brain to plasma ratio in Wistar rat at 5 mg/kg, po measured upto 48 hrs; type: ADME, organism-based; details: brain and plasma, read-out: BPR
[29] = Drug excretion in Wistar rat urine at 1 mg/kg, iv measured upto 48 hrs; type: ADME, organism-based; details: read-out: Drug excretion
[30] = Brain to plasma ratio in male Sprague-Dawley rat at 1 mg/kg, iv measured upto 8 hrs by LC-MS/MS analysis; type: ADME, organism-based; details: brain and plasma, read-out: BPR
[31] = CSF to plasma ratio in male Sprague-Dawley rat at 1 mg/kg, iv measured upto 8 hrs by LC-MS/MS analysis; type: ADME, organism-based; details: CSF and plasma
[32] = Tmax in beagle dog at 2 mg/kg, po measured upto 24 hrs; type: ADME, organism-based, Canis lupus familiaris; details: in vivo
[33] = biological target: Alpha-2C adrenergic receptor (Homo sapiens, UniProt P18825); assay: biochemical
Chain of Alpha-2C adrenergic receptor (P18825 whole entry): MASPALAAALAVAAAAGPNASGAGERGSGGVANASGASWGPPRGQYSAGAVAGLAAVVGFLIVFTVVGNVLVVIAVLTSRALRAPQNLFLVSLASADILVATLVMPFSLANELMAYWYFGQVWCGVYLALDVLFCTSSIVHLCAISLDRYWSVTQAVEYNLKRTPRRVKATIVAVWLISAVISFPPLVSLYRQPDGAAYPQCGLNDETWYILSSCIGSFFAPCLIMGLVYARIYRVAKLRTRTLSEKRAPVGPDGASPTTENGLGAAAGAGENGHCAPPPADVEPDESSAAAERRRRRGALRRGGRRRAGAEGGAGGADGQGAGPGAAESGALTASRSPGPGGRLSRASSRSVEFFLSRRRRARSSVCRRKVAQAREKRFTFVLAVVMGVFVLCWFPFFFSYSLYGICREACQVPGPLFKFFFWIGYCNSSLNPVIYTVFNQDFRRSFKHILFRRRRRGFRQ

Chain of 5-hydroxytryptamine receptor 1B (P28222 whole entry): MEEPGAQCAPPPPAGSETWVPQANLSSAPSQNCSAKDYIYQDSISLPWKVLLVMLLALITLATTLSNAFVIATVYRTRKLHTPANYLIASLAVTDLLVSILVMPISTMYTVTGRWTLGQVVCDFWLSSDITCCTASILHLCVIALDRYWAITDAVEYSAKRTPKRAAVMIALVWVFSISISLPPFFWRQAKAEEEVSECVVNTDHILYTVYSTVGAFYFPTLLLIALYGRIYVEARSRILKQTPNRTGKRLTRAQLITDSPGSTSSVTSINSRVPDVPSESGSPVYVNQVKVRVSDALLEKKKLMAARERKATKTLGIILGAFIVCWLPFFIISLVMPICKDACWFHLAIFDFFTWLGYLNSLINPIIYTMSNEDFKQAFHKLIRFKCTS
Chain of Alpha-2A adrenergic receptor (Homo sapiens) (P08913 whole entry): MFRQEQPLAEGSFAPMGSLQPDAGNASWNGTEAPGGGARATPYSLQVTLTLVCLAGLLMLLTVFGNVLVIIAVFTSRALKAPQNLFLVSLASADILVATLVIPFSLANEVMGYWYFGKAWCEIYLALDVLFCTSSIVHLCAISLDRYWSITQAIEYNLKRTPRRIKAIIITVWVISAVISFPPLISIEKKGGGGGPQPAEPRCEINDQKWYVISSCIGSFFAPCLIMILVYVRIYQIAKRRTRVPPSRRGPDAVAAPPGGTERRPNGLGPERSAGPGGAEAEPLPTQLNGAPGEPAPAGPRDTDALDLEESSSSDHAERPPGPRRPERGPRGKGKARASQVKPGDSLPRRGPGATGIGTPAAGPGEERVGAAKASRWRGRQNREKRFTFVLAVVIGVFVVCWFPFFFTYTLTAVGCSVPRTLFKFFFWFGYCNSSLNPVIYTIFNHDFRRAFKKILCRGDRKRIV
Chain of 5-hydroxytryptamine receptor 2B (P41595 whole entry): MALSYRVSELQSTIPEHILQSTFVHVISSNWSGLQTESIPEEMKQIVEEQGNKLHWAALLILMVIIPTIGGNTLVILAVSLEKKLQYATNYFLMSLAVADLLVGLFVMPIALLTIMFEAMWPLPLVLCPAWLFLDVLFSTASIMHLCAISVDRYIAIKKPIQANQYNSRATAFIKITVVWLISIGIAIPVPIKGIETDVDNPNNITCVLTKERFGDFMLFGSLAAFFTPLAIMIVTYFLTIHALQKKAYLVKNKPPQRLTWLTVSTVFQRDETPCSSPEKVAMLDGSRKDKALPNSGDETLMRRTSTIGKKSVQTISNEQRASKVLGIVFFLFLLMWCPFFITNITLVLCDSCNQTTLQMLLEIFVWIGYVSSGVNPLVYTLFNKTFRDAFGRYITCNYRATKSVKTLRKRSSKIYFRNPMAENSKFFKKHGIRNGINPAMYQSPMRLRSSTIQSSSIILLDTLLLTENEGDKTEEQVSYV
Chain of Muscarinic acetylcholine receptor M1 (Homo sapiens) (P11229 whole entry): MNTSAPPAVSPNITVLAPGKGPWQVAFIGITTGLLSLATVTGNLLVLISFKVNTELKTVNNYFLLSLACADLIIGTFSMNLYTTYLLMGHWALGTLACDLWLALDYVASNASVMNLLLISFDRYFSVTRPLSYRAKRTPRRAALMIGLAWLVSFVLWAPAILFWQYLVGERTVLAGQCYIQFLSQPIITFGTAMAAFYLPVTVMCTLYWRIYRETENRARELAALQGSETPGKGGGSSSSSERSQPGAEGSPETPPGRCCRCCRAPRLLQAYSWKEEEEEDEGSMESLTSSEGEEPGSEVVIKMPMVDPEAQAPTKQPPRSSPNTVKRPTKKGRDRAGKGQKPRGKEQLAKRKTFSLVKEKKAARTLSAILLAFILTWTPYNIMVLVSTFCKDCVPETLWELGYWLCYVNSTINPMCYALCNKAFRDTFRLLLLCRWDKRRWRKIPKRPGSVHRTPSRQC
Chain of 5-hydroxytryptamine receptor 6 (P50406 whole entry): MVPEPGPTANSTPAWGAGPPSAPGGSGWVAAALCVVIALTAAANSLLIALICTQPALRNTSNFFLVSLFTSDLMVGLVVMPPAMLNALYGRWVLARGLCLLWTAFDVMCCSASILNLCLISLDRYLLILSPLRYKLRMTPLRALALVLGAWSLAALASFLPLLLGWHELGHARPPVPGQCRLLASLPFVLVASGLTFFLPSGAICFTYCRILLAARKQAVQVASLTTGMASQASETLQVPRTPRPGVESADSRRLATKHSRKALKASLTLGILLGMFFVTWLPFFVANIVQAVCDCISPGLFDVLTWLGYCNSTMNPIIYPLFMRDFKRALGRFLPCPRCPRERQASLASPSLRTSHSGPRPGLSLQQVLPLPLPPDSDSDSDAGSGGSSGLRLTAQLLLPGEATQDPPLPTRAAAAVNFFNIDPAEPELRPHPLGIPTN

COc1cc([Se]C(F)(F)F)c(OC)cc1CCN.Cl
pKi [1]: 8.00
pKi [2]: 8.17
inhibition [3]: 90%
pKi [4]: 6.02
inhibition [5]: 88%
Emax [6]: 56%
Cmax [7]: 3160 ng/g
Activity [8]: 2602 cm
Activity [9]: 25
Activity [10]: 0.17
Activity [11]: Active
Activity [12]: 947
Activity [13]: 993
Activity [14]: 736
Activity [15]: 820
inhibition in vivo at 1 mg/kg [16]: 9%
Activity [17]: inactive
Activity [18]: inactive
Activity [19]: Active
half-life at 1 µM [20]: > 2 h
half-life at 1 µM [21]: > 2 h
half-life [22]: > 2 h
Tmax [23]: 4.98 min
AUC(0-inf) [24]: 49.7 ng·h/mL
Tmax [25]: 0.5 h
Kp at 48 h [26]: 64.3
AUC(0-inf) [27]: 2880 ng·h/mL
Kp at 48 h [28]: 57.9
dose excreted at 48 h [29]: 0.07%
Kp at 8 h [30]: 15.6
Kp at 8 h [31]: 0.2
Tmax [32]: 2 h
pKi [33]: 6.97
